From patent publication US20110165173A1, “THERAPEUTIC AGENT AND DETECTION REAGENT FOR ARTERIOSCLEROTIC DISEASE WHICH TARGETS FOR SALUSIN” (PROTEINEXPRESS CO., LTD., priority 2007, published 2011)

Tested on: scavenger receptor class A (SR-A) activity
Test: Scavenger receptor class A (SR-A) activity: [125I]AcLDL association and degradation assays
Type: cell-based, human
Details: 0.6 nM; 5 to 10 μg/mL [125I]AcLDL, 18 hours
Text: A scavenger receptor is a lipoprotein receptor expressed on macrophages. It recognizes modified LDL such as oxidized LDL or AcLDL, leading to endocytosis. A ligand of such receptor that has been incorporated into a cell is degraded in the lysosome. Such scavenger receptor plays a very important role on formation of foam cells from macrophages. Known examples of a scavenger receptor include a scavenger receptor class A (SR-A), CD36, lectin-like oxidized LDL receptor-1 (LOX-1), and CD68 [Greaves D R et al., J Lipid Res. 2005; 46: 11-20.]. Oxidized LDL can bind to the four types of the above scavenger receptors. However, the only scavenger receptor to which AcLDL binds is SR-A. In this experiment, AcLDL, which is a representative example of modified LDL, was used as a ligand and the activity of SR-A serving an exclusive scavenger receptor capable of recognizing AcLDL was assayed (FIG. 9).
Peripheral blood human monocytes (4×10^6cells/6 cm dish) were cultured for 7 days in an RPMI-1640 medium (2 mL) containing 10% human serum so as to differentiate into macrophages. At such time, 0.6 nM salusin-α or salusin-β was added during culture to examine effects of salusin-α and salusin-β on the endocytosis activity (SR-A activity) of [^125I]AcLDL. On Day 7, the medium was changed. An adequate amount of medium was added to [^125I]AcLDL (5 to 10 μg/mL) and 0.6 nM salusin-α or salusin-β so as to result in a total amount of 2 mL. The cells were further cultured for 18 hours.
The cells were washed once with PBS containing 3% BSA and then washed twice with PBS. 0.1 N NaOH (1 mL) was added thereto and the resultant was allowed to stand at room temperature for 30 minutes. The cells were recovered into a polystyrene tube (12×75 mm, Fisher Scientific Company), further washed with 0.1 N NaOH (1 mL), and recovered again. The total amount of the cell extraction solution was assayed using a y counter. The protein concentration of a portion thereof was determined by the BCA method (Pierce). The cell association (μg/mg cell protein) of [^125I]AcLDL was calculated by dividing the radioactivity (cpm) of the cell extraction solution by the specific activity (cpm/μg) of [^125I]AcLDL and the cell protein amount (mg) per dish [Miyazaki A et al., J Biol Chem. 1994; 269: 5264-5269].
[^125I]AcLDL incorporated by macrophages via scavenger receptors are degraded in the lysosome. […]
A portion (750 μL) was collected from each culture supernatant into a polystyrene tube (12×75 mm, Fisher Scientific Company). […] In addition, the peptide from [^125I]AcLDL that had been processed by cells was exclusively detected in the trichloroacetic acid soluble fraction. […]

Substance: salusin-α: peptide (SEQ ID NO: 1) comprising 28 amino acid residues, generated by processing from preprosalusin (SGALPPAPAAPRPALRAQRAGPAGPGAK; listed as Homo sapiens)
- [125I]AcLDL association assay vs control cells: no significant changes
- [125I]AcLDL degradation assay vs control cells: no significant changes

Substance: salusin-β: peptide (SEQ ID NO: 3) comprising 20 amino acid residues, generated by processing from preprosalusin (AIFIFIRWLLKLGHHGRAPP; listed as Homo sapiens) [reference compound]
- [125I]AcLDL association assay vs control cells: no significant changes
- [125I]AcLDL degradation assay vs control cells: no significant changes
